The target in test [1] is T1, Lysine-specific histone demethylase 1A (Homo sapiens, UniProt O60341).
Test [2] concerns the target T1, Lysine-specific histone demethylase 1A. The source holds these as a separate data set.
Test [3] concerns NB-4. In words: Induction of differentiation of human NB4 cells assessed as increase in CD11b positive cells at 0.5 to 5 uM by flow cytometric analysis. The format is functional, cell-based. (In general: In flow cytometry, cells or beads pass a laser one at a time.)
The subject of test [4] is NB-4. In words: Induction of differentiation of human NB4 cells assessed as increase in CD11b positive cells at 2.5 uM by flow cytometric analysis relative to control. The class given is functional.
In test [5] the test system is NB-4. In words: Induction of differentiation of human NB4 cells assessed as increase in CD11b positive cells at 5 uM by flow cytometric analysis relative to control. The class given is functional.
For test [6], the system named is NB-4. In words: Induction of differentiation of human NB4 cells assessed as increase in CD11b positive cells at 1.25 uM by flow cytometric analysis relative to control. The class given is functional, cell-based.
The species entered for test [7] is Homo sapiens.
For test [8], the target named is T1, Lysine-specific histone demethylase 1A. In words: Inhibition of LSD1 in HEK293 cells assessed as increase in H3K4me1 levels at 10 uM after 24 hrs by Western blot method. The class given is cell-based.
In test [9] the test system is NB-4. In words: Induction of differentiation of human NB4 cells assessed as increase in CD11b positive cells at 10 uM by flow cytometric analysis relative to control. The format is functional.
Test [10] addresses T1, Lysine-specific histone demethylase 1A. In words: Binding affinity to fluorescently labeled recombinant human LSD1 expressed in Escherichia coli by MST analysis.
The target of test [11] is T2, Amine oxidase [flavin-containing] B (Homo sapiens, UniProt P27338).
T2 sequence (P27338 whole entry): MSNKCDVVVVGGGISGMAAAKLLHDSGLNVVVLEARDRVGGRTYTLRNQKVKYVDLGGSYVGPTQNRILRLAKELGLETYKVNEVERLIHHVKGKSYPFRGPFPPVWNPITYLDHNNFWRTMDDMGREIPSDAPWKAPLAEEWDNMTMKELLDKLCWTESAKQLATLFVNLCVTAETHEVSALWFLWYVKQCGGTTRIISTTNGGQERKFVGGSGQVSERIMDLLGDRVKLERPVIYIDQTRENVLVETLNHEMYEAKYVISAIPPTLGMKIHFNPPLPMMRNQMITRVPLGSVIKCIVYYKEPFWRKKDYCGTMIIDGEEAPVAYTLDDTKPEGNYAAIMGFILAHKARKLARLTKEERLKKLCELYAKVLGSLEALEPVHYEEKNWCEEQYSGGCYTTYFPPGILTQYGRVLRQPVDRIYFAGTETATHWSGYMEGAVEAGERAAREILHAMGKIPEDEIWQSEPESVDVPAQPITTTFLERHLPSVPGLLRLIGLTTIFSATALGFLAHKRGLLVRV
In words: Inhibition of recombinant full length N-terminal FLAG-tagged human MAO-B expressed in baculovirus infected Sf9 insect cells using […] as substrate after 1 hr by spectrometric method.

For test [12], the target named is T1, Lysine-specific histone demethylase 1A. In words: Inhibition of LSD1 in HEK293 cells assessed as increase in H3K4me2 levels at 2.5 uM after 24 hrs by Western blot method. The format is cell-based. A general note: In western blotting, separated proteins are transferred to a membrane and probed.
The target is the same in test [13]. The conditions noted are these: 4.1 uM.
Test [14] addresses T3, Amine oxidase [flavin-containing] A (Homo sapiens, UniProt P21397).
T3 sequence (P21397 whole entry): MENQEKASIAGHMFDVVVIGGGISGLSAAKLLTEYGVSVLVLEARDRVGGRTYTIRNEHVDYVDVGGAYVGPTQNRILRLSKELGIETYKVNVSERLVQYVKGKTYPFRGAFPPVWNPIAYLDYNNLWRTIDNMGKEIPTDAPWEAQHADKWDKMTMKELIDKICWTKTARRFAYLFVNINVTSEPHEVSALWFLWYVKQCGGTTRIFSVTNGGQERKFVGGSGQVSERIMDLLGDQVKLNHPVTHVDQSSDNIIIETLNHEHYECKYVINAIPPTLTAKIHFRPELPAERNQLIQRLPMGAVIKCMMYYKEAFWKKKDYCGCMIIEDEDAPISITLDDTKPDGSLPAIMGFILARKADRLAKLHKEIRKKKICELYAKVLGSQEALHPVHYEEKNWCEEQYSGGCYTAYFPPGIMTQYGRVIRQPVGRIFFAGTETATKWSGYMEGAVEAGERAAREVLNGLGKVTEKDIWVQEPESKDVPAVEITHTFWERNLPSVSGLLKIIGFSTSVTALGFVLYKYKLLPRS
In words: Inhibition of recombinant full length N-terminal FLAG-tagged human MAO-A expressed in baculovirus infected Sf9 insect cells using […] as substrate after 1 hr by spectrometric method.

The species entered for test [15] is Homo sapiens. The source holds these as a separate data set.

Active and inactive are the calls of the source. No cut-off for these calls is given here.

Usually IC50 stands for the concentration that gives 50% inhibition. The term Kd denotes the constant that tells how readily two partners part at equilibrium.

`COc1ccc(N2C(=O)NC(=O)C(=Cc3ccc(O)c(O)c3)C2=O)cc1` yielded an IC50 in test [1] of 3.1 µM.

In the case of `O=C1NC(=O)N(c2ccc(Br)cc2)C(=O)C1=Cc1ccc(O)c(O)c1`, the Ratio IC50 in [2] was 12. For the same molecule, the IC50 in test [1] was 0.3 µM. In addition, the result in the test on NB-4 [3] was Active.

`COc1ccc(CC2C(=O)NC(=O)N(c3ccc(Br)cc3)C2=O)cc1OC` (configuration not stated) returned an IC50 in test [1] of over 75 µM.

The molecule `COc1ccc(C=C2C(=O)NC(=O)N(c3ccc(Br)cc3)C2=O)cc1O` registered an IC50 in [1] of 3.6 µM.

In test [1], `COc1ccc(N2C(=O)NC(=O)/C(=C\c3ccc(N4CCOCC4)c(F)c3)C2=O)cc1` displayed an IC50 of 18.2 µM.

Molecule `CCc1ccc(N2C(=O)NC(=O)/C(=C\c3cc4ccccc4[nH]3)C2=O)cc1` displayed an IC50 in [1] of 6.42 µM.

As to `COc1cc(C=C2C(=O)NC(=O)N(c3ccc(Br)cc3)C2=O)cc(OC)c1O`, the result in the test with NB-4 [4], in the test with NB-4 [5] and in the test on NB-4 [6] was Active. Also, in test [1], the concentration for half-maximal inhibition (IC50) is 0.55 µM.

For the molecule `O=C1NC(=S)N(c2ccc(Br)cc2)C(=O)C1=Cc1ccc(O)c(O)c1`, the Ratio IC50 was over 487 in the test listed under Homo sapiens [7] and 177 in the test filed under Homo sapiens [15]. Moreover, the Activity with NB-4 [4] came to 12.5%; with NB-4 [5] it was 36.6%; with NB-4 [9] it was 89.7%; in test [13], 98.2%. Also, the inhibition entry in test [8] and in test [12] was “Active” each time. Besides, the Kd in [10] was 1.1 µM. For the same molecule, the values for the IC50 in test [11], in test [14] and in test [1] were over 200 µM, 72.5 µM and 0.41 µM, respectively.

`COc1ccc(C=C2C(=O)NC(=O)N(c3ccc(Br)cc3)C2=O)cc1OC` showed an IC50 in test [1] of 2.8 µM.

For `COc1ccc(C=C2C(=O)NC(=O)N(c3ccc(Br)cc3)C2=O)c(OC)c1OC`, the IC50 in test [1] is 3.6 µM.

On to `Cc1ccccc1N1C(=O)NC(=O)C(=Cc2cc3ccccc3[nH]2)C1=O`, for which it took 4.4 µM to reach half-maximal inhibition in test [1] (IC50).

For `COc1cc(C=C2C(=O)NC(=O)N(c3ccc(Br)cc3)C2=O)ccc1O`, the outcome in the test with NB-4 [4], with NB-4 [5] and in the test with NB-4 [6] was Active. In test [1], this molecule yielded an IC50 of 0.87 µM.

In the case of `CN1CCN(C(=O)CN[C@H]2C[C@@H]2c2ccc(OCc3ccccc3)cc2)CC1`, the result with NB-4 [3] was Active.

In turn, `Cc1ccc(N2C(=O)NC(=O)C(=Cc3cccc(O)c3)C2=O)cc1` returned an IC50 in test [1] of 23 µM.

Consider `N#Cc1ccc(N2C(=O)NC(=O)C(=Cc3ccc(O)c(O)c3)C2=O)cc1`, for which half-maximal inhibition in test [1] (IC50) required 1.2 µM. Further, the outcome with NB-4 [3] was Active.

`Cc1ccc(N2C(=O)NC(=O)C(=Cc3cc4ccccc4[nH]3)C2=O)cc1` showed an IC50 in test [1] of 1.1 µM. Moreover, in the test on NB-4 [3], the result was Active.

These data come from ChEMBL document CHEMBL4229552, “Optimization of 5-arylidene barbiturates as potent, selective, reversible LSD1 inhibitors for the treatment of acute promyelocytic leukemia” (Bioorg Med Chem, 2018).
